The values below come from BindingDB's records for doi:10.1021/jm980032l (Wake Forest University School of Medicine, 1998).

A word on the Ki: it is a dissociation constant, usually derived from enzyme kinetics or from competition with a known ligand.

The target in assay [1] is Sigma non-opioid intracellular receptor 1 (Cavia porcellus) (UniProt Q60492). As to the kind of experiment: Binding affinity against sigma-1 receptor in guinea pig brain membranes using [3H](+)-pentazocine as the radioligand.
The target is the same in assay [2]. As to the kind of experiment: Compound tested for binding affinity towards sigma 1 receptor in quinea pig brain membranes using [3H](+)-pentazocine as the radioligand.

Sigma non-opioid intracellular receptor 1 (Cavia porcellus), sequence (Q60492 whole entry, looked up): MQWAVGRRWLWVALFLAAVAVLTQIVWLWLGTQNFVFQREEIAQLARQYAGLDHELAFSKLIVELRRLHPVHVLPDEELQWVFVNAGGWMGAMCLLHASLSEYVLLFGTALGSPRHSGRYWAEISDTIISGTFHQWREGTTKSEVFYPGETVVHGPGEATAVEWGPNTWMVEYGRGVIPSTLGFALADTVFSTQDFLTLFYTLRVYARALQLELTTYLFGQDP

In assay [1], `O=C(Cc1ccccc1[N+](=O)[O-])NC1CCN(Cc2ccccc2)CC1` [N-(1-Benzyl-piperidin-4-yl)-2-(2-nitro-phenyl)-acetamide] came in with a Ki of 26.9 nM.
As to `O=C(Cc1ccc(F)cc1F)NC1CCN(Cc2ccccc2)CC1` [N-(1-Benzyl-piperidin-4-yl)-2-(2,4-difluoro-phenyl)-acetamide], the Ki in assay [1] came to 3.87 nM.
Same read-out and setting: to `O=C(Cc1ccccc1Br)NC1CCN(Cc2ccccc2)CC1` [N-(1-Benzyl-piperidin-4-yl)-2-(2-bromo-phenyl)-acetamide] belongs 2.89 nM; to `COc1ccc(CC(=O)NC2CCN(Cc3ccccc3)CC2)cc1` [N-(1-Benzyl-piperidin-4-yl)-2-(4-methoxy-phenyl)-acetamide], 66.4 nM; to `COc1cccc(CC(=O)NC2CCN(Cc3ccccc3)CC2)c1` [N-(1-Benzyl-piperidin-4-yl)-2-(3-methoxy-phenyl)-acetamide], 10.5 nM.
`O=C(Cc1c(Cl)cccc1Cl)NC1CCN(Cc2ccccc2)CC1` [N-(1-Benzyl-piperidin-4-yl)-2-(2,6-dichloro-phenyl)-acetamide] gave a Ki in assay [1] of 7.28 nM.
Take `O=C(Cc1cc(F)ccc1F)NC1CCN(Cc2ccccc2)CC1` [N-(1-Benzyl-piperidin-4-yl)-2-(2,5-difluoro-phenyl)-acetamide]: the affinity in assay [1], expressed as Ki, was 4.21 nM.
`COc1ccccc1CC(=O)NC1CCN(Cc2ccccc2)CC1` [N-(1-Benzyl-piperidin-4-yl)-2-(2-methoxy-phenyl)-acetamide]: the affinity in assay [1] corresponds to a Ki of 30.8 nM.
With `O=C(Cc1ccc(O)c(O)c1)NC1CCN(Cc2ccccc2)CC1` [N-(1-Benzyl-piperidin-4-yl)-2-(3,4-dihydroxy-phenyl)-acetamide], the Ki in assay [2] is above 1000 nM.
As for `O=C(Cc1ccc(Cl)cc1Cl)NC1CCN(Cc2ccccc2)CC1` [N-(1-Benzyl-piperidin-4-yl)-2-(2,4-dichloro-phenyl)-acetamide], the Ki in assay [1] is 9.66 nM.
In assay [1], `O=C(Cc1cccc(Cl)c1)NC1CCN(Cc2ccccc2)CC1` [N-(1-Benzyl-piperidin-4-yl)-2-(3-chloro-phenyl)-acetamide] yielded a Ki of 1.4 nM.
In assay [1], `O=C(Cc1ccc(F)c(F)c1)NC1CCN(Cc2ccccc2)CC1` [N-(1-Benzyl-piperidin-4-yl)-2-(3,4-difluoro-phenyl)-acetamide] registered a Ki of 3.17 nM.
In the case of `O=C(Cc1ccc([N+](=O)[O-])cc1)NC1CCN(Cc2ccccc2)CC1` [N-(1-Benzyl-piperidin-4-yl)-2-(4-nitro-phenyl)-acetamide], the Ki in assay [1] is 18 nM.
On to `O=C(Cc1ccc(Cl)c(Cl)c1)NC1CCN(Cc2ccccc2)CC1` [N-(1-Benzyl-piperidin-4-yl)-2-(3,4-dichloro-phenyl)-acetamide], for which the affinity in assay [1] corresponds to a Ki of 5.22 nM.
`O=C(Cc1ccc(Cl)cc1)NC1CCN(Cc2ccccc2)CC1` [N-(1-Benzyl-piperidin-4-yl)-2-(4-chloro-phenyl)-acetamide]: in assay [1], the affinity, expressed as Ki, was 6.46 nM.
On the same count and under the same terms, to `O=C(Cc1cccc(F)c1)NC1CCN(Cc2ccccc2)CC1` [N-(1-Benzyl-piperidin-4-yl)-2-(3-fluoro-phenyl)-acetamide] belongs 2.45 nM; to `COc1ccc(NC(=O)NC2CCN(Cc3ccccc3)CC2)c(OC)c1` [1-(1-Benzyl-piperidin-4-yl)-3-(2,4-dimethoxy-phenyl)-urea], 30.1 nM.
As to `O=C(Cc1cccc(Br)c1)NC1CCN(Cc2ccccc2)CC1` [N-(1-Benzyl-piperidin-4-yl)-2-(3-bromo-phenyl)-acetamide], the affinity in assay [1], expressed as Ki, was 0.87 nM.
Still for that read-out and setting: for `O=C(Cc1ccccc1Cl)NC1CCN(Cc2ccccc2)CC1` [N-(1-Benzyl-piperidin-4-yl)-2-(2-chloro-phenyl)-acetamide] the value was 3.08 nM.
Still for that read-out and setting: to `O=C(Cc1ccccc1O)NC1CCN(Cc2ccccc2)CC1` [N-(1-Benzyl-piperidin-4-yl)-2-(2-hydroxy-phenyl)-acetamide] belongs 18.8 nM.
Still for that read-out and setting: to `O=C(Cc1ccc(O)c(Cl)c1)NC1CCN(Cc2ccccc2)CC1` [N-(1-Benzyl-piperidin-4-yl)-2-(3-chloro-4-hydroxy-phenyl)-acetamide] belongs 23.8 nM; to `CSc1ccc(CC(=O)NC2CCN(Cc3ccccc3)CC2)cc1` [N-(1-Benzyl-piperidin-4-yl)-2-(4-methylsulfanyl-phenyl)-acetamide], 27.1 nM.
`Nc1ccc(CC(=O)NC2CCN(Cc3ccccc3)CC2)cc1` [2-(4-Amino-phenyl)-N-(1-benzyl-piperidin-4-yl)-acetamide] gave a Ki in assay [1] of 470 nM.
Same read-out and setting: to `COc1cc(CC(=O)NC2CCN(Cc3ccccc3)CC2)cc(OC)c1OC` [N-(1-Benzyl-piperidin-4-yl)-2-(3,4,5-trimethoxy-phenyl)-acetamide] belongs 80 nM; to `O=C(Cc1ccccc1C(F)(F)F)NC1CCN(Cc2ccccc2)CC1` [N-(1-Benzyl-piperidin-4-yl)-2-(2-trifluoromethyl-phenyl)-acetamide], 8.7 nM.
In assay [1], `COc1cc(CC(=O)NC2CCN(Cc3ccccc3)CC2)cc(OC)c1` [N-(1-Benzyl-piperidin-4-yl)-2-(3,5-dimethoxy-phenyl)-acetamide] displayed a Ki of 121 nM.
The same measure, in the same setting: to `O=C(Cc1cccc(C(F)(F)F)c1)NC1CCN(Cc2ccccc2)CC1` [N-(1-Benzyl-piperidin-4-yl)-2-(3-trifluoromethyl-phenyl)-acetamide] belongs 3.92 nM.
Still for that read-out and setting: for `O=C(Cc1cc(F)cc(F)c1)NC1CCN(Cc2ccccc2)CC1` [N-(1-Benzyl-piperidin-4-yl)-2-(3,5-difluoro-phenyl)-acetamide] the value was 7.63 nM.
Same read-out and setting: for `O=C(Cc1ccc([N+](=O)[O-])cc1[N+](=O)[O-])NC1CCN(Cc2ccccc2)CC1` [N-(1-Benzyl-piperidin-4-yl)-2-(2,4-dinitro-phenyl)-acetamide] the value was 14.2 nM; for `O=C(Cc1ccc2c(c1)OCO2)NC1CCN(Cc2ccccc2)CC1` [2-Benzo[1,3]dioxol-5-yl-N-(1-benzyl-piperidin-4-yl)-acetamide], 7.32 nM; for `COc1cccc(C(O)CNC2CCN(Cc3ccccc3)CC2)c1OC` (stereo not given) [2-(1-Benzyl-piperidin-4-ylamino)-1-(2,3-dimethoxy-phenyl)-ethanol], 32.1 nM.
Turning to `O=C(Cc1ccc(F)cc1)NC1CCN(Cc2ccccc2)CC1` [N-(1-Benzyl-piperidin-4-yl)-2-(4-fluoro-phenyl)-acetamide], in assay [1], affinity was put at a Ki of 3.43 nM.
`O=C(Cc1ccc(O)cc1)NC1CCN(Cc2ccccc2)CC1` [N-(1-Benzyl-piperidin-4-yl)-2-(4-hydroxy-phenyl)-acetamide] gave a Ki in assay [1] of 286 nM.
Same read-out and setting: to `COc1ccc(CC(=O)NC2CCN(Cc3ccccc3)CC2)cc1OC` [N-(1-Benzyl-piperidin-4-yl)-2-(3,4-dimethoxy-phenyl)-acetamide] belongs 352 nM.
On the same count and under the same terms, for `O=C(Cc1c(F)cccc1F)NC1CCN(Cc2ccccc2)CC1` [N-(1-Benzyl-piperidin-4-yl)-2-(2,6-difluoro-phenyl)-acetamide] the value was 5.8 nM.
Still for that read-out and setting: to `COc1ccc(OC)c(CC(=O)NC2CCN(Cc3ccccc3)CC2)c1` [N-(1-Benzyl-piperidin-4-yl)-2-(2,5-dimethoxy-phenyl)-acetamide] belongs 43.4 nM; to `CSc1ccc(NC(=O)NC2CCN(Cc3ccccc3)CC2)cc1` [1-(1-Benzyl-piperidin-4-yl)-3-(4-methylsulfanyl-phenyl)-urea], 63.9 nM; to `O=C(Cc1cccc(O)c1)NC1CCN(Cc2ccccc2)CC1` [N-(1-Benzyl-piperidin-4-yl)-2-(3-hydroxy-phenyl)-acetamide], 110 nM.
`O=C(Cc1cccc([N+](=O)[O-])c1)NC1CCN(Cc2ccccc2)CC1` [N-(1-Benzyl-piperidin-4-yl)-2-(3-nitro-phenyl)-acetamide] yielded a Ki in assay [1] of 4.56 nM.
Still for that read-out and setting: to `O=C(Cc1ccc(C(F)(F)F)cc1)NC1CCN(Cc2ccccc2)CC1` [N-(1-Benzyl-piperidin-4-yl)-2-(4-trifluoromethyl-phenyl)-acetamide] belongs 9.84 nM.
